Results reported in ChEMBL document CHEMBL1201862, “PubChem BioAssay data set” (2004).
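Assay format: 96-well plates, 48-hour exposure. At the GI50, growth is halved.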 Calls of active or inactive are those of the source. No stated cut-off is given here; in the data, active = GI50 up to about 1.1 µM and inactive = higher. Where a SMILES comes first, the peptide text is derived from it. [ ]: non-standard residue; d: D form. Phe(4-NO2) = N[CH](Cc1ccc([N+](=O)[O-])cc1)C(=O)O

What was measured:
Assay in all cases: NCI anticancer screen, dose series, 48 h
[1] = test system: BT-549
[2] = test system: CAKI-1
[3] = test system: HCT-15
[4] = test system: HL-60
[5] = test system: HT-29
[6] = test system: LOX IMVI
[7] = test system: M14
[8] = test system: MCF7
[9] = test system: MOLT-4
[10] = test system: PC-3
[11] = test system: SF-268
[12] = test system: SK-MEL-2
[13] = test system: TK-10
[14] = test system: U-251
[15] = test system: UO-31
[16] = test system: 786-0
[17] = test system: SW-620
[18] = test system: NCI/ADR-RES
[19] = test system: MDA-N

Compound	GI50 [1]	GI50 [2]	GI50 [3] [µM]	GI50 [4]	GI50 [5]	GI50 [6]	GI50 [7]	GI50 [8]	GI50 [9]	GI50 [10]	GI50 [11]	GI50 [12]	GI50 [13]	GI50 [14]	GI50 [15]	GI50 [16]	GI50 [17]	GI50 [18]	GI50 [19]
c1ccc(Sc2nc(Sc3ccccc3)nc(Sc3ccccc3)n2)cc1	> 100 µM (inactive)	38.9 µM (inactive)	33.4	6.38 µM (inactive)	38.9 µM (inactive)	> 100 µM (inactive)	> 100 µM (inactive)	26.5 µM (inactive)	17.8 µM (inactive)	7.11 µM (inactive)	32 µM (inactive)	37.2 µM (inactive)	44.6 µM (inactive)	19.4 µM (inactive)	57 µM (inactive)	–	–	–	–
CCN(CC)CCCCC1CCN(CC(=O)N2c3cc(Cl)ccc3NC(=O)CC2C)CC1 (stereo unspecified)	–	> 100 µM (inactive)	> 100	> 100 µM (inactive)	> 100 µM (inactive)	> 100 µM (inactive)	> 100 µM (inactive)	–	> 100 µM (inactive)	–	> 100 µM (inactive)	–	–	> 100 µM (inactive)	> 100 µM (inactive)	> 100 µM (inactive)	> 100 µM (inactive)	–	–
Nc1nc(Cl)cc(NCC2(CO)CC(=O)C2)n1	> 100 µM (inactive)	> 100 µM (inactive)	> 100	> 100 µM (inactive)	> 100 µM (inactive)	> 100 µM (inactive)	–	> 100 µM (inactive)	> 100 µM (inactive)	> 100 µM (inactive)	> 100 µM (inactive)	> 100 µM (inactive)	> 100 µM (inactive)	> 100 µM (inactive)	> 100 µM (inactive)	> 100 µM (inactive)	> 100 µM (inactive)	> 100 µM (inactive)	–
CC(=O)OC1c2ccccc2CC2(OC(C)=O)c3ccccc3C12 (stereo unspecified)	–	> 100 µM (inactive)	> 100	> 10 µM (inactive)	> 100 µM (inactive)	> 100 µM (inactive)	> 100 µM (inactive)	80.4 µM (inactive)	> 100 µM (inactive)	> 100 µM (inactive)	> 100 µM (inactive)	> 100 µM (inactive)	> 100 µM (inactive)	> 100 µM (inactive)	> 100 µM (inactive)	> 100 µM (inactive)	> 100 µM (inactive)	> 100 µM (inactive)	> 100 µM (inactive)
Nc1ccc2c(c1)NCCN2	37.2 µM (inactive)	12.9 µM (inactive)	61.9	9.71 µM (inactive)	42.3 µM (inactive)	8.05 µM (inactive)	73.1 µM (inactive)	4.53 µM (inactive)	2.75 µM (inactive)	> 100 µM (inactive)	56.5 µM (inactive)	> 100 µM (inactive)	55.7 µM (inactive)	22.9 µM (inactive)	17.4 µM (inactive)	> 100 µM (inactive)	–	> 100 µM (inactive)	–
CCSC1SC(c2ccccc2)(c2ccccc2)c2ccccc21 (stereo unspecified)	39.8 µM (inactive)	48.6 µM (inactive)	42.1	–	34.6 µM (inactive)	45.1 µM (inactive)	31.2 µM (inactive)	33.7 µM (inactive)	25.4 µM (inactive)	39.4 µM (inactive)	93.1 µM (inactive)	–	67.3 µM (inactive)	92.3 µM (inactive)	47.5 µM (inactive)	43.4 µM (inactive)	54.8 µM (inactive)	43.2 µM (inactive)	35.9 µM (inactive)
Sc1nn2c(COc3ccc(Cl)cc3)nnc2s1	–	> 100 µM (inactive)	81.8	> 100 µM (inactive)	> 100 µM (inactive)	–	> 100 µM (inactive)	> 100 µM (inactive)	> 100 µM (inactive)	> 100 µM (inactive)	> 100 µM (inactive)	> 100 µM (inactive)	> 100 µM (inactive)	> 100 µM (inactive)	> 100 µM (inactive)	> 100 µM (inactive)	> 100 µM (inactive)	> 100 µM (inactive)	–
CC(NC(=O)C(Cc1ccc([N+](=O)[O-])cc1)NC(=O)C(N)CCCCN)C(=O)NC(Cc1ccc([N+](=O)[O-])cc1)C(N)=O (stereo unspecified) (H-K[Phe(4-NO2)]A[Phe(4-NO2)]-NH2; configuration not given here)	27.6 µM (inactive)	47 µM (inactive)	56.6	18.7 µM (inactive)	20.4 µM (inactive)	> 100 µM (inactive)	> 50.5 µM (inactive)	> 40.7 µM (inactive)	> 31.6 µM (inactive)	32.5 µM (inactive)	> 50 µM (inactive)	51.5 µM (inactive)	> 59.4 µM (inactive)	> 42.2 µM (inactive)	44.4 µM (inactive)	21.9 µM (inactive)	27.2 µM (inactive)	69 µM (inactive)	–
COc1ccc(-c2oc3cc(O)cc(O)c3c(=O)c2OC)cc1 [ERMANIN]	–	24.3 µM (inactive)	23.4	14.1 µM (inactive)	24.7 µM (inactive)	38.2 µM (inactive)	37.2 µM (inactive)	38.5 µM (inactive)	20.9 µM (inactive)	31 µM (inactive)	22.1 µM (inactive)	–	39.9 µM (inactive)	18 µM (inactive)	21.6 µM (inactive)	–	31.2 µM (inactive)	27.2 µM (inactive)	25.4 µM (inactive)
